Test results taken from the SangsterLogP compilation.

SMILES | logP
CCC(=O)NC(=O)Nc1ccccc1 | 2.19
O=C(CCl)Nc1sc2c(c1C(=O)c1ccccc1)CCCC2 | 4.58
NC(=O)C(C(N)=O)c1ccccc1 | -0.07
CC(C)NC(=O)Nc1ccccc1 | 1.84
CNc1ccccc1C(=O)OC | 2.97
O=C(Nc1ccccc1)Nc1ccccn1 | 3.1
CC(C)Nc1ccccc1N | 1.65
CCc1ccccc1NC | 2.58
c1ccc(CNc2nc3ccccc3[nH]2)cc1 | 2.92
OCCNc1nc2ccccc2[nH]1 | 1.1
CC(=O)Nc1ccccc1N | 0.13
COc1ccc(C(=O)Nc2nc3ccccc3[nH]2)cc1 | 2.89
CC(C)NC(=O)c1ccc2ccccc2c1 | 2.68
CNC(=O)Nc1ccccn1 | 0.8
CC(C)NC(=O)c1cc2ccccc2oc1=O | 2.13
NC(=O)C(c1ccccc1)c1ccccc1 | 2.11
